Data from paper PMC3269340, “Pharmacokinetics of memantine in rats and mice” (PLoS Currents, 2012).
Read-outs that look alike come from different tables or passages of the source.

Test: Pharmacokinetics in rats after single iv, po or sc dose (plasma and brain)
Format: in vivo, Sprague-Dawley rats
Details: male, Sprague-Dawley; for Kp: brain/plasma, read-out: Ratio of Brain-to-Plasma AUC(0-∞); for Vd: read-out: Volume of Distribution at Steady State (Vdss); for bioavailability: read-out: Bioavailability (F); for AUC(0-inf): read-out: AUC(0-∞); for Cmax: read-out: Observed Cmax
Protocol: Sprague Dawley (SD) rats (138 adult males), and C57Bl/6 mice (140 adult males), were obtained (Hilltop Laboratories, Scottsdale, PA); 123 per species were used in the study and the remainder provided blank matrix. Animals were individually identified by tail markings and were acclimated to the study environment for 16-21 days prior to dose administration. Animals were individually housed in suspended wire caging, and were kept on a 12h/12h light/dark cycle except when interrupted for study procedures. Average room temperature was regulated in the range 18 to 29°C, average relative humidity of 30-70%, and an average daily airflow >10 fresh air changes/h. Animals were fed LabDiet^Ò Certified Rodent Diet 5002 Meal food ad libitum, except during fasting prior to dose administration, and had access to water ad libitum.
[…] […] The concentration of memantine for the same dose level administered to mice was 0.2 mg eq./mL, and the dose volume was 5 mL/kg. The concentration of memantine in the 10mg eq./kg po and sc solutions was 5 mg eq./mL and the dose volume was 2 mL/kg for both rats and mice.
Details of the dose administration, body weights, clinical observations, plasma and brain sample collection and preparation are not shown in this report but are available upon request. Blood (for preparation of plasma) and brain samples were collected at 0.08, 0.25, 0.5, 1, 2, 4, 8, and 24h post-dose.
Since all time points were terminal, mean memantine concentrations per time point were used to calculate the composite PK parameters by non-compartmental analysis using WinNonlin program, version 5.2 (Pharsight Corp., Mountain View, California). A model was selected based on the vascular (iv bolus) or extravascular (po or sc) routes of administration. For the iv route, plasma concentration at time zero was back extrapolated from the first two observed post dose plasma concentrations. For the po and sc routes, concentration at time zero was assumed to be zero. Plasma and tissue concentrations below the limit of quantitation were treated as absent samples for the purpose of calculating the mean plasma concentration values or for calculating PK parameters.
The area under the plasma concentration versus time curve (AUC) was calculated using the linear trapezoidal method (linear interpolation). When appropriate, the terminal elimination phase of the PK profile was estimated based on the best fit (r^2) using at least the last three observed concentrations. PK parameters describing the systemic exposure of memantine in plasma and brain were estimated from observed (rather than predicted) plasma/brain concentrations, the dosing regimen, the AUC, and the terminal elimination phase rate constant (kel) for each group. The portion of the AUC from the last measurable concentration to infinity was estimated from the equation Ct/kel, where Ct represents the last measurable concentration. The extrapolated portion of the AUC was used for the determination of AUC0-∞. The percent bioavailability (%F) was calculated by dividing the dose normalized extravascular plasma AUC0-∞ by the dose normalized iv plasma AUC0-∞ times 100. The bioavailability calculations assumed concentrations were in the linear range.
Concentrations of memantine in rat and mouse plasma and brain were determined using an LC-MS/MS assay developed at ABC Laboratories.

[1] = rat, brain, iv, 1.22 mg/kg, rat brain, IV 1.22 mg eq./kg
[2] = rat, brain, po, 1.22 mg/kg, rat brain, PO 1.22 mg eq./kg
[3] = rat, brain, po, 10 mg/kg, rat brain, PO 10.0 mg eq./kg
[4] = rat, brain, sc, 1 mg/kg, rat brain, SC 1.0 mg eq./kg
[5] = rat, brain, sc, 10 mg/kg, rat brain, SC 10.0 mg eq./kg

CC12CC3CC(C)(C1)CC(N)(C3)C2 [memantine]
AUC(0-t) (1 mg/kg, rat brain, SC 1.0 mg eq./kg): 48 µM·h | Tmax (1 mg/kg, rat brain, SC 1.0 mg eq./kg, read-out: Observed Tmax): 0.5 h | AUC(0-t) (1 mg/kg, rat plasma, SC 1.0 mg eq./kg): 1.62 µM·h | Tmax (1 mg/kg, rat plasma, SC 1.0 mg eq./kg, read-out: Observed Tmax): 0.25 h | AUC(0-t) (1.22 mg/kg, rat brain, IV 1.22 mg eq./kg): 43 µM·h | Tmax (1.22 mg/kg, rat brain, IV 1.22 mg eq./kg, read-out: Observed Tmax): 0.5 h | AUC(0-t) (1.22 mg/kg, rat brain, PO 1.22 mg eq./kg): 13.1 µM·h | Tmax (1.22 mg/kg, rat brain, PO 1.22 mg eq./kg, read-out: Observed Tmax): 2 h | AUC(0-t) (1.22 mg/kg, rat plasma, IV 1.22 mg eq./kg): 1.57 µM·h | MRT inf (1.22 mg/kg, rat plasma, IV 1.22 mg eq./kg, read-out: Mean Residency Time (MRT0-∞)): 2.08 h | AUC(0-t) (1.22 mg/kg, rat plasma, PO 1.22 mg eq./kg): 0.541 µM·h | Tmax (1.22 mg/kg, rat plasma, PO 1.22 mg eq./kg, read-out: Observed Tmax): 1 h | AUC(0-t) (10 mg/kg, rat brain, PO 10.0 mg eq./kg): 254 µM·h | Tmax (10 mg/kg, rat brain, PO 10.0 mg eq./kg, read-out: Observed Tmax): 2 h | AUC(0-t) (10 mg/kg, rat brain, SC 10.0 mg eq./kg): 441 µM·h | Tmax (10 mg/kg, rat brain, SC 10.0 mg eq./kg, read-out: Observed Tmax): 1 h | AUC(0-t) (10 mg/kg, rat plasma, PO 10.0 mg eq./kg): 11.2 µM·h | Tmax (10 mg/kg, rat plasma, PO 10.0 mg eq./kg, read-out: Observed Tmax): 0.5 h | AUC(0-t) (10 mg/kg, rat plasma, SC 10.0 mg eq./kg): 25.8 µM·h | Tmax (10 mg/kg, rat plasma, SC 10.0 mg eq./kg, read-out: Observed Tmax): 0.5 h | Kp (rat, IV 1.22 mg eq./kg): 29.1 | Kp (rat, PO 1.22 mg eq./kg): 35.6 | Kp (rat, PO 10.0 mg eq./kg): 22.5 | Kp (rat, SC 1.0 mg eq./kg): 31.4 | Kp (rat, SC 10.0 mg eq./kg): 17.1 | clearance (plasma, 1.22 mg/kg, rat, IV 1.22 mg eq./kg, read-out: Plasma Clearance (CLp) (converted)): 69.2 mL/min/kg | Vd (plasma, 1.22 mg/kg, rat, IV 1.22 mg eq./kg): 8.62 L/kg | bioavailability (plasma, 1.22 mg/kg, rat, PO 1.22 mg eq./kg): 36.3% | bioavailability (plasma, 10 mg/kg, rat, PO 10.0 mg eq./kg): 84.9% | concentration at 24 h (plasma, oral, rat, dose 10 mg/kg, single dose in solution, read-out: C min): 0.03 µM | Tmax (plasma, po, rat, dose 1 mg/kg, cross-species summary, read-out: T max): 1 h | Vd (plasma, rat, IV 1.22 mg eq./kg): 8 to 9 L/kg | bioavailability (plasma, rat, PO 1.22 mg eq./kg): 36% | Tmax (plasma, rat, dose 10 mg/kg, cross-species summary, read-out: T max): 0.5 to 1 h | AUC(0-inf) [1]: 47.6 µM·h | half-life (rat, brain, iv, 1.22 mg/kg, rat brain, IV 1.22 mg eq./kg, read-out: Half-life (t½) (converted)): 2.28 h | Cmax [1]: 11 µM | half-life (rat, brain, oral, subcutaneous, summary for rats and mice, rat, read-out: brain elimination half-lives after extravascular administrations): 2.3 to 3.8 h | half-life (rat, brain, po, 1.22 mg/kg, rat brain, PO 1.22 mg eq./kg, estimated using the LOQ for the 24 hr concentration, large imprecision, read-out: Half-life (t½) (converted)): < 2.54 h | AUC(0-inf) [2]: 21.1 µM·h | Cmax [2]: 2.17 µM | AUC(0-inf) [3]: 256 µM·h | half-life (rat, brain, po, 10 mg/kg, rat brain, PO 10.0 mg eq./kg, read-out: Half-life (t½) (converted)): 3.7 h | Cmax [3]: 25.4 µM | AUC(0-inf) [4]: 53 µM·h | half-life (rat, brain, sc, 1 mg/kg, rat brain, SC 1.0 mg eq./kg, read-out: Half-life (t½) (converted)): 2.51 h | Cmax [4]: 10.6 µM | AUC(0-inf) [5]: 442 µM·h | half-life (rat, brain, sc, 10 mg/kg, rat brain, SC 10.0 mg eq./kg, read-out: Half-life (t½) (converted)): 2.65 h | Cmax [5]: 75.4 µM | half-life (rat, plasma, intravenous, oral, subcutaneous, rat, all dose routes and levels (plasma; b142 also brain), read-out: elimination half-life): 3 to 4 h
